Patent US8163795B2, “Chroman derivatives, medicaments and use in therapy” (Marshall Edwards, Inc., priority 2004, dated 2012)

How the values were obtained:
[1] = test system: PC3 prostate cancer cell line; assay: Proliferation assay (MTT); assay type: cell-based; settings: Table 2.2
Protocol: (§1) All cultures were supplemented with 10% FCS (fetal calf serum CSL, Australia), penicillin (100 U/ml), streptomycin ([…]), L-glutamine (2 mM) and sodium bicarbonate (1.2 g/L), and cultured at 37° C. in a humidified atmosphere of 5% CO2. All cell lines were purchased from ATCC (Maryland, USA) except where noted.
(§2) IC50 values were determined for each cell line. Cells were seeded in 96-well plates at an appropriate cell density as determined from growth kinetics analysis and cultured for 5 days in the absence and presence of the test compounds. Cell proliferation was assessed after the addition of 20 μl of 3-4,5 dimethylthiazol-2,5-diphenyl tetrazolium bromide (MTT, 2.5 mg/ml in PBS, Sigma) for 3-4 hrs at 37° C. according to manufacturer's instructions. IC50 values were calculated from semi-log plots of % of control proliferation on the y-axis against log dose on the x-axis.

HT-29 (Colorectal) = assay: Proliferation assay (MTT); assay type: cell-based; settings: Homo sapiens, HT-29, Table 2.2; Colorectal HT-29
Protocol: as §1, §2

NCI-H460 (Lung) = assay: Proliferation assay (MTT); assay type: cell-based; settings: Homo sapiens, NCI-H460, Table 2.2; NSC Lung NCI-H460
Protocol: as §1, §2

CCRF-CEM (Leukemic) = assay: Proliferation assay (MTT); assay type: cell-based; settings: Homo sapiens, CCRF-CEM, Table 2.2; Leukaemia CCRF-CEM
Protocol: as §1, §2

HTB-138 (Glioma) = assay: Proliferation assay (MTT); assay type: cell-based; settings: Table 2.2; Glioma HTB-138
Protocol: as §1, §2

[2] = test system: MDA-MB-468 breast cancer cell line; assay: Proliferation assay (MTT); assay type: cell-based; settings: Homo sapiens, MDA-MB-468, Table 2.2; Breast MDA-MB-468; read-out: IC50
[3] = test system: CP70 ovarian cancer cell line; assay: Proliferation assay (MTT); assay type: cell-based; settings: Table 2.2 (further studies); Ovarian CP70; read-out: IC50
MM200 melanoma cell line [4] = assay: Proliferation assay (MTT); assay type: cell-based; settings: Table 2.2; Melanoma MM200; read-out: IC50
TXB2 = assay: Eicosanoid synthesis in LPS-stimulated murine macrophages (RAW 264.7); assay type: cell-based, mouse; settings: 10 μM; negative values indicate inhibition
Protocol: (§3) The mouse macrophage cell line RAW 264.7 was cultured in DMEM supplemented with foetal calf serum (FCS), 2 mM glutamine and 50 U/ml penicillin/streptomycin. Subconfluent cells were detached from the flask by gentle scraping and 24-well plates seeded at 5×10^5 cells per well and allowed to adhere for 1 hr. Cells were then treated either test compound at a concentration of 10 μM (in 0.025% DMSO) or vehicle alone, and incubated for 1 hr. LPS 50 ng/ml (LPS—Sigma-Aldrich) was then added. After incubation for 16 hrs, culture media was collected and stored at −80° C. for ecosanoid measurements using enzyme immunometric assays (PGE2 and TXB2—Cayman Chemical).
(§4) Table 16: Percentage change in eicosanoid synthesis after incubating test compound at 10 μM compared with incubation with vehicle alone.

PGE2 = assay: as above; assay type: cell-based, mouse; settings: 10 μM; negative values indicate inhibition
Protocol: as §3, §4

[5] = test system: HPAC (CRL-2119) pancreatic cancer cell line; assay: Proliferation assay (MTT); assay type: cell-based, human; settings: Homo sapiens, HPAC, Table 2.2; Pancreatic HPAC; read-out: IC50
TNFα = assay: Inhibition of TNFα in LPS-stimulated murine macrophages (RAW 264.7); assay type: cell-based, mouse; settings: for Inhibition of TNFα, dose dependence: over the concentration ranges tested
Protocol: The mouse macrophage cell line RAW 264.7 was cultured in DMEM supplemented with FCS, 2 mM glutamine and 50 U/ml penicillin/streptomycin. Subconfluent cells were detached from the flask by gentle scraping and 24-well plates seeded at 5×10^5 cells per well and allowed to adhere for 1 hr. Cells were treated with either test agent (in 0.025% DMSO) or vehicle alone, 1 hr prior to the addition of 50 ng/ml LPS. After incubation for 16 hrs, culture media was collected and stored at −80° C. for TNFα measurement using an enzyme immunometric assay (Becton Dickinson).

[6] = test system: Mel-RM melanoma cell line; assay: HMC combination with gemcitabine (synergy); assay type: cell-based; settings: Table 9, single agent
Protocol: as §2
(§5) 3-D model analysis of the cytotoxic interaction between drug A and drug B enables the representation of predicted inhibitory effect of two drugs in combination in 3 dimensions to reveal actual regions of synergy or antagonism. The 3D synergy plots are based on a theory of “Theretical Additivity” (TA) as outlined by Kanzawa et al (Int. J. Cancer 71, 311-319 (1997)). Theoretical Additivity was calculated from the cytotoxicities of drug A and drug B as monotherapies using the following formula which assumes the drugs are mutually exclusive inhibitors: […]
(§6) The TA is calculated for each combination of drug concentrations and subtracted from the observed experimental effect for each combination to give a measurement of synergisitic action.
HMC synergy with gemcitabine was assessed either in combination over 5 days exposure or in sequence (HMC→gemcitabine) against the Mel-RM melanoma cell line. It was difficult to assess for synergisitic toxicity using a change in IC50 as a measure of synergy due to HMC toxicity as monotherapy (Table 9). […] Evidence of synergy using the HMC-gemcitabine combination was further assessed using the HMC→gemcitabine sequence (24 hr exposure to each compound in sequence) against the melanoma cell line Mel-RM. Using change in IC50 to assess for synergy it was noted that HMC at concentrations of 2 and 1 μM markedly chemosensitised the Mel-RM cells to gemcitabine by >1000 fold. HMC-induced chemosensitisation of Mel-RM cells to gemcitabine was confirmed using 3D analysis of the data.

[7] = test system: Mel-RM melanoma cell line; assay: HMC combination with doxorubicin (synergy); assay type: cell-based; settings: Table 12, single agent
Protocol: (§7) IC50 values were determined for each cell line. Cells were seeded in 96-well plates at an appropriate cell density as determined from growth kinetics analysis and cultured for 5 days in the absence and presence of the test compounds. […] IC50 values were calculated from semi-log plots of % of control proliferation on the y-axis against log dose on the x-axis.
(§8) 3-D model analysis of the cytotoxic interaction between drug A and drug B enables the representation of predicted inhibitory effect of two drugs in combination in 3 dimensions to reveal actual regions of synergy or antagonism. […] Theoretical Additivity was calculated from the cytotoxicities of drug A and drug B as monotherapies using the following formula which assumes the drugs are mutually exclusive inhibitors: […]
HMC synergy with doxorubicin was assessed either in combination over 5 days exposure or in sequence (HMC→doxorubicin) against the Mel-RM melanoma cell line.

4405 melanoma cell line = assay: HMC combination with paclitaxel (synergy); assay type: cell-based; settings: Table 10; single agent, 24 hr exposure; read-out: IC50, 24 hr (monotherapy)
Protocol: as §2, §5, §6
HMC synergy with paclitaxel was assessed either in combination over 5 days exposure or in sequence (HMC→paclitaxel) against the 4405 melanoma cell line. It was difficult to assess for synergisitic toxicity using a change in IC50 as a measure of synergy due to HMC toxicity as monotherapy (Table 10). […] Evidence of synergy using the HMC-paclitaxel combination was further assessed using the HMC→paclitaxel sequence (24 hr exposure to each compound in sequence) against the melanoma cell line 4405. Using change in IC50 to assess for synergy it was noted that HMC at concentrations of 2 μM markedly chemosensitised the 4405 cells to paclitaxel by >1000 fold (Table 10). HMC-induced chemosensitisation of […] cells to paclitaxel was confirmed using 3D analysis of the data.

MM200 melanoma cell line [8] = assay: HMC combination with topotecan (synergy); assay type: cell-based; settings: Table 11, single agent
Protocol: as §7, §8
HMC synergy with topotecan was assessed either in combination over 5 days exposure or in sequence (HMC→topotecan) against the MM200 melanoma cell line.

[9] = Concentration 10 μM, RAW 264.7, LPS 50 ng/ml, 16 hrs
[10] = 120 h, 5 days exposure, read-out: IC50, Combined (monotherapy)
[11] = 24 hr exposure, read-out: IC50, 24 hr (monotherapy)

Oc1ccc(C2COc3cc(O)ccc3C2c2ccccc2)cc1 (stereo not shown) [Compound 2, 3-(4-hydroxyphenyl)-4-phenylchroman-7-ol]
IC50 [1]: 4.2 ± 0.02 µM
IC50 (HT-29 (Colorectal)): 59.4 µM
IC50 (NCI-H460 (Lung)): 5.4 ± 2.1 µM
IC50 (CCRF-CEM (Leukemic)): 4.02 µM
IC50 (HTB-138 (Glioma)): 3.77 µM
IC50 [2]: 1.9 µM
IC50 [3]: 3 ± 1.2 µM
IC50 (MM200 melanoma cell line [4]): 7.34 µM
Percentage change in TXB2 synthesis vs vehicle alone (TXB2): 16%
Percentage change in PGE2 synthesis vs vehicle alone (PGE2): −12.6%
IC50 [5]: 24.4 ± 12 µM

COc1ccc(C2COc3cc(OC)ccc3C2c2ccc(OC)cc2)cc1 (stereo not shown) [Compound 6, 3-(4-methoxyphenyl)-4-(4-methoxyphenyl)-7-methoxychroman]
IC50 [1]: 116 ± 57 µM
IC50 (HT-29 (Colorectal)): > 100 µM
IC50 (CCRF-CEM (Leukemic)): 92 ± 81.6 µM
IC50 (HTB-138 (Glioma)): > 100 µM
IC50 [2]: 28.7 ± 3.6 µM
Inhibition of TNFα (TNFα; Concentration 0.001 μM): 1.0
Inhibition of TNFα (TNFα; Concentration 0.1 μM): −10.4
Inhibition of TNFα (TNFα; Concentration 1 μM): −13.0
Inhibition of TNFα (TNFα; [9]): −48.7
Inhibition of TNFα, dose dependence (TNFα): inhibit TNFα in murine macrophages in a dose dependent manner
IC50 [3]: > 100 µM
IC50 (MM200 melanoma cell line [4]): > 100 µM
Percentage change in TXB2 synthesis vs vehicle alone (TXB2): −16.4%
Percentage change in PGE2 synthesis vs vehicle alone (PGE2): −37.7%
IC50 [5]: > 100 µM

Nc1ccn([C@@H]2O[C@H](CO)[C@@H](O)C2(F)F)c(=O)n1 [Gemcitabine, gemcitabine, reference compound]
IC50 [6, 10]: 0.00388 µM
IC50 [6, 11]: 0.00467 µM

COc1cccc2c1C(=O)c1c(O)c3c(c(O)c1C2=O)C[C@@](O)(C(=O)CO)C[C@@H]3O[C@H]1C[C@H](N)[C@H](O)[C@H](C)O1 [Doxorubicin, doxorubicin, reference compound]
IC50 [7, 10]: 0.19 µM
IC50 [7, 11]: 0.1 µM

Nc1cccc(C2c3ccc(O)cc3OCC2c2ccc(O)cc2)c1 (stereo not shown) [Compound 14, 3-(4-hydroxyphenyl)-4-(3-aminophenyl)chroman-7-ol]
IC50 [1]: 32.5 ± 2.1 µM
IC50 (HT-29 (Colorectal)): 45 ± 4.7 µM
IC50 (NCI-H460 (Lung)): 65 µM
IC50 (CCRF-CEM (Leukemic)): 73 ± 51.6 µM
IC50 (HTB-138 (Glioma)): 53.5 ± 14 µM
IC50 [2]: 56.6 µM
IC50 [3]: > 100 µM
IC50 (MM200 melanoma cell line [4]): 93 ± 2.9 µM
IC50 [5]: 79 ± 56 µM

COc1cc(O)cc(OC)c1C1c2ccc(O)cc2OCC1c1ccc(O)cc1 (stereo not shown) [Compound 7, 3-(4-hydroxyphenyl)-4-(2,6-dimethoxy-4-hydroxyphenyl)chroman-7-ol]
Inhibition of TNFα (TNFα; Concentration 0.001 μM): 19.2
Inhibition of TNFα (TNFα; Concentration 0.1 μM): −1.4
Inhibition of TNFα (TNFα; Concentration 1 μM): −25.4
Inhibition of TNFα (TNFα; [9]): −26.2
Inhibition of TNFα, dose dependence (TNFα): inhibit TNFα in murine macrophages in a dose dependent manner

COc1ccc(C2c3ccc(O)cc3OCC2c2ccc(OC)c(OC)c2)cc1 (stereo not shown) [Compound 4, 3-(3,4-dimethoxyphenyl)-4-(4-methoxyphenyl)chroman-7-ol]
Inhibition of TNFα (TNFα; Concentration 0.001 μM): −14.3
Inhibition of TNFα (TNFα; Concentration 0.01 μM): −11.3
Inhibition of TNFα (TNFα; Concentration 0.1 μM): −6.3
Inhibition of TNFα (TNFα; Concentration 1 μM): −11.9
Inhibition of TNFα (TNFα; [9]): −6.1

CC(=O)O[C@H]1C(=O)[C@@]2(C)[C@H]([C@H](OC(=O)c3ccccc3)[C@]3(O)C[C@H](OC(=O)[C@H](O)[C@@H](NC(=O)c4ccccc4)c4ccccc4)C(C)=C1C3(C)C)[C@]1(OC(C)=O)CO[C@@H]1C[C@@H]2O [Paclitaxel, paclitaxel, reference compound]
IC50 (4405 melanoma cell line): 0.000584 µM

CC[C@@]1(O)C(=O)OCc2c1cc1n(c2=O)Cc2cc3c(CN(C)C)c(O)ccc3nc2-1 [Topotecan, topotecan, reference compound]
IC50 (MM200 melanoma cell line [8]; [10]): 0.095 µM
IC50 (MM200 melanoma cell line [8]; [11]): 2.22 µM
